“And” between values parts separate entries of the source, which are not always exact repeats. Identical values can stand only once. One block for each molecule: values may come before it. The source made the active and inactive calls.
Experiments:
[1] = target: T1, Sentrin-specific protease 6 (Homo sapiens, UniProt Q9GZR1); type: functional;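 further: Luminescence-based dose-response confirmatory assay of SENP6 inhibition, following up an ultra-high-throughput screen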
T1 sequence (Q9GZR1 whole entry): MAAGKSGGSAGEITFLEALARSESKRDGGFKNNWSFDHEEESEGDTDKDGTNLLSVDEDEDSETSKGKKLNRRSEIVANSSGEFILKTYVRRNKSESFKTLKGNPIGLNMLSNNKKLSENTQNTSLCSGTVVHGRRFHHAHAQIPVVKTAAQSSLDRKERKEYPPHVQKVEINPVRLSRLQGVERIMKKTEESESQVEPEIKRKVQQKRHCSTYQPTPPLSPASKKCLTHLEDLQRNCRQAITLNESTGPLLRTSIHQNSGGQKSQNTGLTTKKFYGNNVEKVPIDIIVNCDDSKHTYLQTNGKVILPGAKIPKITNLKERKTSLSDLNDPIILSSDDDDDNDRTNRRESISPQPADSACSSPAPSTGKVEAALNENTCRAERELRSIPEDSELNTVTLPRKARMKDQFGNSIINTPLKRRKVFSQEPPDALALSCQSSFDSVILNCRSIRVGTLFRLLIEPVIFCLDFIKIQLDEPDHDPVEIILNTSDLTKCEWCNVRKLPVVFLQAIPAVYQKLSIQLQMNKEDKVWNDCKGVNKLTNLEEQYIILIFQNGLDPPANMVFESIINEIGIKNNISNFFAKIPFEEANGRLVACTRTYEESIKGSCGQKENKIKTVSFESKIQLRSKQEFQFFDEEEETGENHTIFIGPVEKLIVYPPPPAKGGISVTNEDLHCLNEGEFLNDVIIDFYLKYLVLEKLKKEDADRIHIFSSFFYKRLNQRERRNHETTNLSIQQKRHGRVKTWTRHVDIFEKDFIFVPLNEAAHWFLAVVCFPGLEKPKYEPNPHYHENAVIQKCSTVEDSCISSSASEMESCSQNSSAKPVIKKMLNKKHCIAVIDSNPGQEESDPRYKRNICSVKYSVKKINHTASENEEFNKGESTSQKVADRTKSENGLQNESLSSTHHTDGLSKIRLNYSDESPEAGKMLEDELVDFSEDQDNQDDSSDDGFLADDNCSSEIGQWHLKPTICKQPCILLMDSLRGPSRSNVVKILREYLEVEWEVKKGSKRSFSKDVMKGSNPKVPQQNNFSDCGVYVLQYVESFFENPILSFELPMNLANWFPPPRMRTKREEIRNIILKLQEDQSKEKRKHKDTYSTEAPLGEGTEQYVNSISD

[2] = target: Casein kinase I isoform gamma-1 (Homo sapiens, UniProt Q9HCP0); type: functional;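 further: measured as the CSNK1G1 member of a kinome profiling panel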
[3] = target: Lymphokine-activated killer T-cell-originated protein kinase (Homo sapiens, UniProt Q96KB5); type: functional;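 further: value comes from a kinase panel screen in which TOPK was one of the panel members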
[4] = target: Macrophage colony-stimulating factor 1 receptor (Homo sapiens, UniProt P07333); type: functional;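 further: value comes from the Navigating the Kinome screening panel, CSF1R member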
Macrophage colony-stimulating factor 1 receptor, sequence (P07333 whole entry): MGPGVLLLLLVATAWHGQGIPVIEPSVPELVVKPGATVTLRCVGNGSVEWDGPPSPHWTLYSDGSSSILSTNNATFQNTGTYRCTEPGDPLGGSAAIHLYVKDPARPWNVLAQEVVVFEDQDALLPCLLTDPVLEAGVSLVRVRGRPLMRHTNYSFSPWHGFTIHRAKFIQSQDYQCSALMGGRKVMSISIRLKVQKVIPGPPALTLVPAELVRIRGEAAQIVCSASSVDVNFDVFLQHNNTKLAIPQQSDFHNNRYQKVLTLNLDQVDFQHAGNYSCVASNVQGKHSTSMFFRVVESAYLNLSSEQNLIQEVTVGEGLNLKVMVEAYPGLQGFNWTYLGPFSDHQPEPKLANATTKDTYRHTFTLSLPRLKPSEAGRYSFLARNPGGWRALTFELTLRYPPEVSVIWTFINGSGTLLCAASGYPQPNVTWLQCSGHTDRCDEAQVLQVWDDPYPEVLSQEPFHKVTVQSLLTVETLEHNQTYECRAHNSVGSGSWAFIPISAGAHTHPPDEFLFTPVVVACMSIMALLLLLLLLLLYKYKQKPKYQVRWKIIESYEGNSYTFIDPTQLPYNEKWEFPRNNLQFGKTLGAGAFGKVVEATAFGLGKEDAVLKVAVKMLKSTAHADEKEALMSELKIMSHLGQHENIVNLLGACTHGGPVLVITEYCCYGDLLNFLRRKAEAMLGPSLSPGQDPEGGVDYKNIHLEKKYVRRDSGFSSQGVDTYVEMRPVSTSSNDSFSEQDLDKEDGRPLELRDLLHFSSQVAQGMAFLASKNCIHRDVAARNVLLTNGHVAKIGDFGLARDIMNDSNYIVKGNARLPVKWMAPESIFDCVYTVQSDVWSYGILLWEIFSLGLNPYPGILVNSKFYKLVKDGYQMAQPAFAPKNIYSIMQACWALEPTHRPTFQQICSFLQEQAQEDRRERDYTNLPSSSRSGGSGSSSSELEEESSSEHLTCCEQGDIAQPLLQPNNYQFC

[5] = target: Hepatocyte growth factor receptor (Homo sapiens, UniProt P08581); type: functional;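 further: kinase panel profiling across the kinome, with MET as the panel member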
[6] = target: Homeodomain-interacting protein kinase 4 (Homo sapiens, UniProt Q8NE63); type: functional
Homeodomain-interacting protein kinase 4, sequence (Q8NE63 whole entry): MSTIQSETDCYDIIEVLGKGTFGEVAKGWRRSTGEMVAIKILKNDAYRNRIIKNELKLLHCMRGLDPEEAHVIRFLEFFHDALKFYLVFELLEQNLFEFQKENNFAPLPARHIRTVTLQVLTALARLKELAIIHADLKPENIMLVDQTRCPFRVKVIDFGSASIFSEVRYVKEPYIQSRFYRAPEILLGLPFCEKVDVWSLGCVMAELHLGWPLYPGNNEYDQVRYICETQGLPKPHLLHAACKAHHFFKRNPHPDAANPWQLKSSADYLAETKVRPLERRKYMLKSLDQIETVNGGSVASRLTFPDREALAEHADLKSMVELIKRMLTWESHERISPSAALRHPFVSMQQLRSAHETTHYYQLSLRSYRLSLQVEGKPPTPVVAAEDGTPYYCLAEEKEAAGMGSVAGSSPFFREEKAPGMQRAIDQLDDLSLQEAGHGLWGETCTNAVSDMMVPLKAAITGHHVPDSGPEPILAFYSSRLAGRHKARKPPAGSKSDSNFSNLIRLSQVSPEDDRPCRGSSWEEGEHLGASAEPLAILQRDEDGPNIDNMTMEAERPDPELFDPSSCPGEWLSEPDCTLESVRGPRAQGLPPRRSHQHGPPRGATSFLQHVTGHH

[7] = target: MAP kinase-activated protein kinase 5 (Homo sapiens, UniProt Q8IW41); type: functional;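 further: measured as one member of a kinome panel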
MAP kinase-activated protein kinase 5, sequence (Q8IW41 whole entry): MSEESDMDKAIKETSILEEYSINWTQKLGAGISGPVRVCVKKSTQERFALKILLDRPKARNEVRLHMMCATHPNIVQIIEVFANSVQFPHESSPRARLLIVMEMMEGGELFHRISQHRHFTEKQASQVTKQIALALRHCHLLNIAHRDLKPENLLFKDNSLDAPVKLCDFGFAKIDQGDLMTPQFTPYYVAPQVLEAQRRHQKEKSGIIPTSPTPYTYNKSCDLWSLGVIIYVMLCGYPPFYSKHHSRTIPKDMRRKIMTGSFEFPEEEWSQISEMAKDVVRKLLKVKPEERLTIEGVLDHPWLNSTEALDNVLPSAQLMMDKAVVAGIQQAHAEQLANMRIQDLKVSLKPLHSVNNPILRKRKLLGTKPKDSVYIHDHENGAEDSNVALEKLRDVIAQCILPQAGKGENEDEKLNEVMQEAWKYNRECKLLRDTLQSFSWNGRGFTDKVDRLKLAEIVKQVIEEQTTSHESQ

[8] = target: Tyrosine-protein kinase receptor TYRO3 (Homo sapiens, UniProt Q06418); type: functional;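 further: TYRO3 value obtained as one member of a kinome-wide profiling panel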
Tyrosine-protein kinase receptor TYRO3, sequence (Q06418 whole entry): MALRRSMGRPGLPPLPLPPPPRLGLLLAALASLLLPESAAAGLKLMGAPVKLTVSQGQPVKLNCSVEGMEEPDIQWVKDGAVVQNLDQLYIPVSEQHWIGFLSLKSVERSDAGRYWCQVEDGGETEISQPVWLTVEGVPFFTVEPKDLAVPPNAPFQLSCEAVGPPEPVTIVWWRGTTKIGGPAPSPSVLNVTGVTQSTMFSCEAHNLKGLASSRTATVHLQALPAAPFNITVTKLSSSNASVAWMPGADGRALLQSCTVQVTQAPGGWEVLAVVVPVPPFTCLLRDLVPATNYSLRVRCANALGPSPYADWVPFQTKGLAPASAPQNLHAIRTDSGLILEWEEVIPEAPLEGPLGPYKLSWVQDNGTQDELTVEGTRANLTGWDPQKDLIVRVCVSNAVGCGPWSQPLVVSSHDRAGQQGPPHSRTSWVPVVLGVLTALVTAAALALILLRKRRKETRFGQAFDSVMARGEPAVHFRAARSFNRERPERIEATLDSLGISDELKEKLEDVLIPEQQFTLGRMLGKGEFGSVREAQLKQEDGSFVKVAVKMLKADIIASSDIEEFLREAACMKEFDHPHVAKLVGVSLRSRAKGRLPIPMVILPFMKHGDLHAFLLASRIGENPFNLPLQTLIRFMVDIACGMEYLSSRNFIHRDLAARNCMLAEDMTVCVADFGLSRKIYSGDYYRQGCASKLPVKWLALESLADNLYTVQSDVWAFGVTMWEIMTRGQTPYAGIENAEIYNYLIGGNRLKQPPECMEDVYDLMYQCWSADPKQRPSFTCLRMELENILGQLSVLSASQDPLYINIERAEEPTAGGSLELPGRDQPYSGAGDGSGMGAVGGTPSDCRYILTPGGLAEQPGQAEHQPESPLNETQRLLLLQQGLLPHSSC

[9] = target: STE20-like serine/threonine-protein kinase (Homo sapiens, UniProt Q9H2G2); type: functional
[10] = target: High affinity nerve growth factor receptor (Homo sapiens, UniProt P04629); type: functional;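 further: NTRK1 tested as one member of a kinome-wide profiling panel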
High affinity nerve growth factor receptor, sequence (P04629 whole entry): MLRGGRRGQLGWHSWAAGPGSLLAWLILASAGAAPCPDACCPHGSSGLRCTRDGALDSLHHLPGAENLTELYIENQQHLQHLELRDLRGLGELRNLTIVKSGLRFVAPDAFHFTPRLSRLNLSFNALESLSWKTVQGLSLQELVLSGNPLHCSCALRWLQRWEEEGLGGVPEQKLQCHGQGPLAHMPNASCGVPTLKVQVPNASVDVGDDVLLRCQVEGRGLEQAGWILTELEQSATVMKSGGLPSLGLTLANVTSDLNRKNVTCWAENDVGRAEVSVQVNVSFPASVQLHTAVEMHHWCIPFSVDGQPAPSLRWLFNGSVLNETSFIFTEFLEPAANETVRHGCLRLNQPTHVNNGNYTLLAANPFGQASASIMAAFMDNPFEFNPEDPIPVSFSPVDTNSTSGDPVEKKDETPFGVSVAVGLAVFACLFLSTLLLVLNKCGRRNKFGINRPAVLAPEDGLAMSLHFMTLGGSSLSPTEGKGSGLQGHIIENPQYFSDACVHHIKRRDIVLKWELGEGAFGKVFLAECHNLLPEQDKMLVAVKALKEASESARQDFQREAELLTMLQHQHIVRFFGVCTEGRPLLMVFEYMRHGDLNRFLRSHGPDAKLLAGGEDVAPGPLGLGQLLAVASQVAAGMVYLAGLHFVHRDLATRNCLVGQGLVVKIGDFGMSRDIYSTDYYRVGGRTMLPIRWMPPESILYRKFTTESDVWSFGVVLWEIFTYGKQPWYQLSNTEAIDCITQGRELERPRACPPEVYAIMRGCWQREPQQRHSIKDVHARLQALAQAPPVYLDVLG

[11] = target: Proto-oncogene tyrosine-protein kinase Src (Homo sapiens, UniProt P12931); type: functional;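 further: SRC entry within a kinome-wide kinase profiling panel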
Proto-oncogene tyrosine-protein kinase Src, sequence (P12931 2-536 limits assumed): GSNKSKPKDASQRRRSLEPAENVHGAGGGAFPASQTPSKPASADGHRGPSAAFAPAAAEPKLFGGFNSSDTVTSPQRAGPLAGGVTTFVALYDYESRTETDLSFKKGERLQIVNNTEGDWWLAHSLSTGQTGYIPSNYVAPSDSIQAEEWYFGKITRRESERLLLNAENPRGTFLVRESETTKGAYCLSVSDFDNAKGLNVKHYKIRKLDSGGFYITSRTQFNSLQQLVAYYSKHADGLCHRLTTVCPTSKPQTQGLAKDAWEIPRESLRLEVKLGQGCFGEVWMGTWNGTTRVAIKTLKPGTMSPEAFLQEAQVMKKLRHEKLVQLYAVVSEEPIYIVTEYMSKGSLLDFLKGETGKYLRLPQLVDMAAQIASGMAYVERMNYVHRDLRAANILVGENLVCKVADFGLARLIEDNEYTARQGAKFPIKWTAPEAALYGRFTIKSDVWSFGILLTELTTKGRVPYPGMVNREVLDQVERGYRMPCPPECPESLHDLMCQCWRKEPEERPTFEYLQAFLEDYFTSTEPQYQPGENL

[12] = target: T2, Phosphomannomutase 2 (Homo sapiens, UniProt O15305); experiment: Counter screen SAR assay for PMM2 inhibitors via a fluorescence intensity assay. [Related pubchem assays (depositor defined):AID1545, AID1574]
T2 sequence (O15305 whole entry): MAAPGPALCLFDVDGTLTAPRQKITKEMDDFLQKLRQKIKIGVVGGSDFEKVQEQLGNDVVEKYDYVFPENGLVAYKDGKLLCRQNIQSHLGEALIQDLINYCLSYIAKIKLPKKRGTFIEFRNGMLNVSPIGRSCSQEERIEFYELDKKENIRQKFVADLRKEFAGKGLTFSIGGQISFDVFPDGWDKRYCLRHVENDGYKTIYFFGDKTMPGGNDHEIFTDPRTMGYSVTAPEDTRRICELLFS

[13] = target: T3, Mannose-6-phosphate isomerase (Homo sapiens, UniProt P34949); experiment: MPI enzyme activity inhibition – biochemical, fluorescence intensity, coupled assay, primary screen (AID 1209)
T3 sequence (P34949 whole entry): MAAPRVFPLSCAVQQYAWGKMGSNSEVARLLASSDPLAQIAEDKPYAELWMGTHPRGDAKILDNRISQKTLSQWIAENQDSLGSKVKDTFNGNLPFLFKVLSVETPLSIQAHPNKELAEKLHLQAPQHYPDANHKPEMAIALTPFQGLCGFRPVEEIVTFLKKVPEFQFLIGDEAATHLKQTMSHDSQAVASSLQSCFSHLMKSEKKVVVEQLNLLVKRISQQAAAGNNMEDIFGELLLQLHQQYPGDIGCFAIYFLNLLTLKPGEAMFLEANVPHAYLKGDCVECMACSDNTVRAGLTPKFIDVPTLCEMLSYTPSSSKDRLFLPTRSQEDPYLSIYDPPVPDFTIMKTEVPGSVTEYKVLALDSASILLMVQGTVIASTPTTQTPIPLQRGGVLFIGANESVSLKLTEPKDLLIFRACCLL

[14] = target: Serine/threonine-protein phosphatase (Candida dubliniensis (strain CD36 / CBS 7987 / NCPF 3949 / NRRLY-17841) (Yeast), UniProt B9W6M3); experiment: Fluorescence Cell-Based Secondary Assay to Identify Inhibitors of Calcineurin. [Related pubchem assays (depositor defined):AID1979, AID2007]; type: functional
Serine/threonine-protein phosphatase, sequence (B9W6M3 whole entry): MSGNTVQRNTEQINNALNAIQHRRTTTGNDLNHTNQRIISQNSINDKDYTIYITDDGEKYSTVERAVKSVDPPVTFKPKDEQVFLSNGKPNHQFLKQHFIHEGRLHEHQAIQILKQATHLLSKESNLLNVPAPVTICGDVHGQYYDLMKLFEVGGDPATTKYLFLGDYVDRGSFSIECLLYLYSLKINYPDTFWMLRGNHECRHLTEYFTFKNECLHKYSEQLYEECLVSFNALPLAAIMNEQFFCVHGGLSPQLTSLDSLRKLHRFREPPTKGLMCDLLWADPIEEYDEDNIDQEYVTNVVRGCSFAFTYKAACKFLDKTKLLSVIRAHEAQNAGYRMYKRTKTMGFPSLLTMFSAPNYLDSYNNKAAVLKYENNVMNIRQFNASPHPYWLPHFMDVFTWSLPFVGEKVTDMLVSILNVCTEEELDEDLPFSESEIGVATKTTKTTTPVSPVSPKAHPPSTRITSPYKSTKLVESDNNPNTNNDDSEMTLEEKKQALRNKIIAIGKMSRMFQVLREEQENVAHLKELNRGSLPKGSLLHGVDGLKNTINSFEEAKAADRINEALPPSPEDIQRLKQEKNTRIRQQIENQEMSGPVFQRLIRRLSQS

[15] = target: ATP-dependent molecular chaperone HSP82 (Candida albicans (strain WO-1) (Yeast), UniProt C4YTQ8); experiment: steroid-induced GRE reporter decrease in yeast – S. cerevisiae, luminescence, Hsp90 inhibitor project, dose response (AID 2400); type: functional, cell-based;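 further: beta-galactosidase luminescence from glucocorticoid response element reporter as proxy for Hsp90 function; inhibitor potency where signal loss means Hsp90 inhibition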
[16] = target: T4, Bcl-2-like protein 10 (Homo sapiens, UniProt Q9HD36); experiment: Bcl-B/TR3 peptide binding disruption – biochemical, fluorescence polarization, FITC-TR3 peptide, selectivity assay for Bfl-1 inhibitor project, primary screen (AID 748);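 further: fluorescence polarization from a fluorescein-labelled TR3 peptide binding purified Bcl-B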
T4 sequence (Q9HD36 whole entry): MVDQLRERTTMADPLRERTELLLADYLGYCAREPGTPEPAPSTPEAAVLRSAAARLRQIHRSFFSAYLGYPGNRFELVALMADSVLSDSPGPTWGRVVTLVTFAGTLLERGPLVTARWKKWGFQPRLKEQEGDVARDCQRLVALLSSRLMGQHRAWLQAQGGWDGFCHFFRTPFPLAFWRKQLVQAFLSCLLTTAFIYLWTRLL

SMILES: CC(=O)N(/N=C1\Sc2ccccc2C1=O)c1ccccc1C
IC50 [1]: 1.91 µM (active)

Ki [2]: 2.51 µM (active)
Ki [4]: > 2.51 µM (inactive)
Ki [5]: > 3.16 µM (inactive)
Ki [6]: 0.0794 µM (active)
Ki [7]: > 1.58 µM (inactive)
Ki [8]: > 2 µM (inactive)
Ki [9]: 0.0631 µM (active)
Ki [10]: 1.26 µM (active)
Ki [11]: > 2 µM (inactive)
SMILES: Cc1cccc(NC(=O)Nc2ccc3c(c2)CCc2sc4ncnc(N)c4c2-3)c1
Ki [3]: 3.16 µM (active)

SMILES: Cc1ccc(-n2sc3ccccc3c2=O)cc1
IC50 [12]: > 100 µM (inactive) and 38 µM (active)
IC50 [13]: 6.78 µM (active)

SMILES: CCCC(=O)NC(c1ccc(Cl)cc1)c1ccc2cccnc2c1O (stereo unspecified)
EC50 [14]: > 285 µM (inactive)
EC50 [15]: > 160 µM (inactive)

SMILES: N/C(=N\N=C/c1ccc(-c2ccc(O)c(C(=O)O)c2)o1)N[N+](=O)[O-]
IC50 [16]: 2.82 µM (active)

Reference: ChEMBL document CHEMBL1201862, “PubChem BioAssay data set” (2004)
